For 34 molecules, UBC10 results are on record in US20080039629A1, “Benzothniazole compositions and their use as ubiquition ligation inhibitors” (RIGEL PHARMACEUTICALS, INC., priority 2003, published 2008).

The target of this assay is T1, E1 and His-E2 Ubch10 (Homo sapiens, UniProt P22314).
T1 construct: host or cells: E. coli (His-Ubch10); Sf9 insect cells (E1)
T1 sequence (P22314 1-1058): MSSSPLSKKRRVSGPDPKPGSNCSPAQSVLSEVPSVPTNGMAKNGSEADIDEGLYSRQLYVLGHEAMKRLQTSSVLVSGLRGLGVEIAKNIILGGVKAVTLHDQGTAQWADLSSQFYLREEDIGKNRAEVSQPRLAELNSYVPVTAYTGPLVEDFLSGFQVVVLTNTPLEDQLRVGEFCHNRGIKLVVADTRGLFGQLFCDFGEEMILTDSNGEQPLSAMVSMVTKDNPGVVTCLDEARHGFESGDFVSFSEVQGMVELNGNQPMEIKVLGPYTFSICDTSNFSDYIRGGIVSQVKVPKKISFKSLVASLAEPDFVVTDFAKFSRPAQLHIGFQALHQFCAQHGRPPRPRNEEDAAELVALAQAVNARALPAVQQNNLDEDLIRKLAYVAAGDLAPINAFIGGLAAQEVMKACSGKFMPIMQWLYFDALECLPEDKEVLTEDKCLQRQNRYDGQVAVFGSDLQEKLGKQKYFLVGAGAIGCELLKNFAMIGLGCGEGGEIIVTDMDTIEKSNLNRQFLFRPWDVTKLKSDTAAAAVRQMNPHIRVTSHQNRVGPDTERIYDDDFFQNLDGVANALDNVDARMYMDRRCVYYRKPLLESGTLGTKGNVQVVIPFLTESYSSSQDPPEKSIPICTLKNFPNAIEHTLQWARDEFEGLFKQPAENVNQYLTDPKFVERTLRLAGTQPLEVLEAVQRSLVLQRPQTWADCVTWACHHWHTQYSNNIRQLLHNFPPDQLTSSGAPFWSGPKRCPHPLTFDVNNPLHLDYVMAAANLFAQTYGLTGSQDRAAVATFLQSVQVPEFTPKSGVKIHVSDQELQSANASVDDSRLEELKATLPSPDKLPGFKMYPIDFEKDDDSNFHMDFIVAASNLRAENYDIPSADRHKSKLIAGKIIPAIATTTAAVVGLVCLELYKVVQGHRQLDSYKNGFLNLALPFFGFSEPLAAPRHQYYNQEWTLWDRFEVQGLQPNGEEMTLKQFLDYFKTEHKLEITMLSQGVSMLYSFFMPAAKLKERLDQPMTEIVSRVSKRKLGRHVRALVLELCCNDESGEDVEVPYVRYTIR
The assay is described as follows: E1 to E2 transfer assay, His-E2 Ubch10, 1.0 μM ATP (low ATP). The following applies: Table 5, ATP inhibition properties; inhibition measured using IC50 values. The format is biochemical. The essentials: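 His-Ubch10 (20 ng/well), E1 (10 ng/well) and Flag-ubiquitin (100 ng) reacted 1 h at room temperature on nickel plates in 62.5 mM Tris pH 7.5, 0.75 mM DTT, 1.0 μM ATP with inhibitor. E2-ubiquitin complex detected by anti-Flag/HRP luminescence; IC50 determined.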

Take `CCOC(=O)c1ccc(NC(=O)Nc2nc3ccc(OCC)cc3s2)cc1` [Compound 136, ethyl 4-(3-(6-ethoxybenzo[d]thiazol-2-yl)ureido)benzoate]: the UBC10 result is “−− (−− indicates marginal or no inhibition detected with this assay)”.
For `COc1ccc2nc(NC(=O)Nc3ccc(C#N)cc3)sc2c1` [Compound 137, 1-(4-cyanophenyl)-3-(6-methoxybenzo[d]thiazol-2-yl)urea], the UBC10 entry is reported as “−− (−− indicates marginal or no inhibition detected with this assay)”.
Take `COc1ccc2nc(NC(=O)c3cccs3)sc2n1` [Compound 138, N-(5-methoxythiazolo[5,4-b]pyridin-2-yl)thiophene-2-carboxamide]: the UBC10 entry is given as “++ (++ indicates inhibition at 50 μM or or less)”.
As to `COc1ccc2nc(NC(=O)c3ccccc3)sc2n1` [Compound 139, N-(5-methoxythiazolo[5,4-b]pyridin-2-yl)benzamide], the UBC10 entry is “−− (−− indicates marginal or no inhibition detected with this assay)”.
Take `COc1ccc2nc(NC(=O)c3ccc(Cl)cc3Cl)sc2n1` [Compound 140, 2,4-dichloro-N-(5-methoxythiazolo[5,4-b]pyridin-2-yl)benzamide]: the UBC10 entry was “−− (−− indicates marginal or no inhibition detected with this assay)”.
For `COc1ccc2nc(NC(=O)c3cccc(F)c3)sc2n1` [Compound 141, 3-fluoro-N-(5-methoxythiazolo[5,4-b]pyridin-2-yl)benzamide] the value was “++ (++ indicates inhibition at 50 μM or or less)”.
Regarding `COc1ccc2nc(NC(=O)c3cccc(Cl)c3)sc2n1` [Compound 142, 3-chloro-N-(5-methoxythiazolo[5,4-b]pyridin-2-yl)benzamide], the UBC10 result is “++ (++ indicates inhibition at 50 μM or or less)”.
For the molecule `COc1ccc2nc(NC(=O)c3sccc3Cl)sc2n1` [Compound 144, 3-chloro-N-(5-methoxythiazolo[5,4-b]pyridin-2-yl)thiophene-2-carboxamide], the UBC10 entry is recorded as “−− (−− indicates marginal or no inhibition detected with this assay)”.
Regarding `COc1ccc2nc(NC(=O)c3c(F)cccc3F)sc2n1` [Compound 145, 2,6-difluoro-N-(5-methoxythiazolo[5,4-b]pyridin-2-yl)benzamide], the UBC10 entry was “−− (−− indicates marginal or no inhibition detected with this assay)”.
Turning to `COc1ccc2nc(NC(=O)c3ccc(F)c(F)c3)sc2n1` [Compound 146, 3,4-difluoro-N-(5-methoxythiazolo[5,4-b]pyridin-2-yl)benzamide], the UBC10 entry was “++ (++ indicates inhibition at 50 μM or or less)”.
For the molecule `COc1ccc2nc(NC(=O)c3ccc(C(F)(F)F)cc3)sc2n1` [Compound 147, N-(5-methoxythiazolo[5,4-b]pyridin-2-yl)-4-(trifluoromethyl)benzamide], the UBC10 result was “−− (−− indicates marginal or no inhibition detected with this assay)”.
Turning to `COc1ccc2nc(NC(=O)c3ccc(NC(C)=O)cc3)sc2n1` [Compound 149, 4-acetamido-N-(5-methoxythiazolo[5,4-b]pyridin-2-yl)benzamide], the UBC10 entry is reported as “++ (++ indicates inhibition at 50 μM or or less)”.
For the molecule `COc1ccc2nc(NC(=O)c3ccc([N+](=O)[O-])cc3)sc2n1` [Compound 150, N-(5-methoxythiazolo[5,4-b]pyridin-2-yl)-4-nitrobenzamide], the UBC10 result is “++ (++ indicates inhibition at 50 μM or or less)”.
In the case of `COc1ccc(C(=O)Nc2nc3ccc(OC)nc3s2)cc1` [Compound 151, 4-methoxy-N-(5-methoxythiazolo[5,4-b]pyridin-2-yl)benzamide], the UBC10 entry is recorded as “++ (++ indicates inhibition at 50 μM or or less)”.
Regarding `COc1ccc2nc(NC(=O)c3ccc(C)cc3)sc2n1` [Compound 152, N-(5-methoxythiazolo[5,4-b]pyridin-2-yl)-4-methylbenzamide], the UBC10 result is listed as “++ (++ indicates inhibition at 50 μM or or less)”.
Take `COc1ccc2nc(NC(=O)c3ccco3)sc2n1` [Compound 153, N-(5-methoxythiazolo[5,4-b]pyridin-2-yl)furan-2-carboxamide]: the UBC10 entry was “++ (++ indicates inhibition at 50 μM or or less)”.
`COc1ccc2nc(NC(=O)c3ccc(F)cc3)sc2n1` [Compound 154, 4-fluoro-N-(5-methoxythiazolo[5,4-b]pyridin-2-yl)benzamide]: the UBC10 entry was “++ (++ indicates inhibition at 50 μM or or less)”.
For the molecule `COc1ccc2nc(NC(=O)c3ccc(Cl)cc3)sc2n1` [Compound 155, 4-chloro-N-(5-methoxythiazolo[5,4-b]pyridin-2-yl)benzamide], the UBC10 entry is listed as “++ (++ indicates inhibition at 50 μM or or less)”.
In the case of `O=C(Nc1nc2ccccc2s1)c1ccc([N+](=O)[O-])o1` [Compound 156, N-(benzo[d]thiazol-2-yl)-5-nitrofuran-2-carboxamide], the UBC10 entry is reported as “−− (−− indicates marginal or no inhibition detected with this assay)”.
`O=C(Nc1nc2ccccc2s1)c1ccccc1Br` [Compound 159, N-(benzo[d]thiazol-2-yl)-2-bromobenzamide]: the UBC10 result was “++ (++ indicates inhibition at 50 μM or or less)”.
Turning to `O=C(Nc1nc2ccccc2s1)c1ccccc1F` [Compound 164, N-(benzo[d]thiazol-2-yl)-2-fluorobenzamide], the UBC10 result is recorded as “−− (−− indicates marginal or no inhibition detected with this assay)”.
Consider `O=C(Nc1nc2ccccc2s1)c1ccccc1` [Compound 168, N-(benzo[d]thiazol-2-yl)benzamide], for which the UBC10 entry is listed as “−− (−− indicates marginal or no inhibition detected with this assay)”.
As for `O=C(Nc1nc2ccccc2s1)c1ccccc1[N+](=O)[O-]` [Compound 169, N-(benzo[d]thiazol-2-yl)-2-nitrobenzamide], the UBC10 result is “−− (−− indicates marginal or no inhibition detected with this assay)”.
Next, `CCCc1ccc(C(=O)Nc2nc3ccccc3s2)cc1` [Compound 170, N-(benzo[d]thiazol-2-yl)-4-propylbenzamide]: “−− (−− indicates marginal or no inhibition detected with this assay)”.
Take `O=C(Nc1nc2ccccc2s1)c1ccc(Br)cc1` [Compound 172, N-(benzo[d]thiazol-2-yl)-4-bromobenzamide]: the UBC10 result was “−− (−− indicates marginal or no inhibition detected with this assay)”.
For `O=C(Nc1nc2ccccc2s1)c1cccc(F)c1` [Compound 174, N-(benzo[d]thiazol-2-yl)-3-fluorobenzamide] the value was “−− (−− indicates marginal or no inhibition detected with this assay)”; for `CC(C)(C)c1ccc(C(=O)Nc2nc3ccccc3s2)cc1` [Compound 176, N-(benzo[d]thiazol-2-yl)-4-tert-butylbenzamide], “−− (−− indicates marginal or no inhibition detected with this assay)”.
For the molecule `O=C(O)c1ccc2c(c1)C(=O)N(c1nc3ccccc3s1)C2=O` [Compound 181, 2-(benzo[d]thiazol-2-yl)-1,3-dioxosioindoline-5-carboxylic acid], the UBC10 result is reported as “−− (−− indicates marginal or no inhibition detected with this assay)”.
As to `O=C(Nc1nc2ccccc2s1)c1cccc(Cl)c1` [Compound 186, N-(benzo[d]thiazol-2-yl)-3-chlorobenzamide], the UBC10 entry was “−− (−− indicates marginal or no inhibition detected with this assay)”.
For `COc1cccc(C(=O)Nc2nc3ccccc3s2)c1` [Compound 189, N-(benzo[d]thiazol-2-yl)-3-methoxybenzamide] the value was “−− (−− indicates marginal or no inhibition detected with this assay)”; for `O=C(Nc1nc2ccccc2s1)c1ccccc1Cl` [Compound 194, N-(benzo[d]thiazol-2-yl)-2-chlorobenzamide], “−− (−− indicates marginal or no inhibition detected with this assay)”; for `O=C(Nc1nc2ccccc2s1)c1cccc(I)c1` [Compound 195, N-(benzo[d]thiazol-2-yl)-3-iodobenzamide], “++ (++ indicates inhibition at 50 μM or or less)”.
As for `O=C(Nc1nc2ccccc2s1)C1CCCCC1` [Compound 205, N-(benzo[d]thiazol-2-yl)cyclohexanecarboxamide], the UBC10 result is “−− (−− indicates marginal or no inhibition detected with this assay)”.
Next, `O=C(Nc1nc2ccccc2s1)c1ccc(Br)o1` [Compound 208, N-(benzo[b]thiazol-2-yl)-5-bromofuran-2-carboxamide]: “−− (−− indicates marginal or no inhibition detected with this assay)”.
